Reference: patent US10189843B2, “Fused pyrazole derivative having autotaxin inhibitory activity” (The University of Tokyo, priority 2014, dated 2019)

Biological target: T1, Human autotaxin enzyme (Homo sapiens, UniProt Q13822)
T1 construct: purchased R&D System
Assay: Evaluation of autotaxin inhibitor, Method C (18:0 Lyso PC substrate, choline assay, Resorufin fluorescence)
Assay type: biochemical
Settings: Method C (Test Example 3), read-out: Inhibitory activity (enzyme inhibitory activity, IC50)
Procedure, shortened: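 Recombinant human autotaxin with compound and 200 μM 18:0 Lyso PC (stock) in Tris-HCl pH 7.5, NaCl, MgCl2, Triton X-100, 2 h RT. Released choline detected via choline oxidase/peroxidase/Amplex-type reagent, 20 min, resorufin fluorescence 531/598 nm; % inhibition vs no-compound and no-enzyme controls, concentration-response curve.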

IC50 [nM]	Compound
100 to 1000	CCCCCC1CN(CC(=O)Nc2cccnc2)C(=O)c2cc(-c3ccc(Cl)cc3)nn21 (centres unmarked) [Compound I-0086]
≥ 1000	CCCCCC1CN(Cc2ccc(Oc3ccccc3)cc2)C(=O)c2cc(-c3ccc(Cl)cc3)nn21 (centres unmarked) [Compound I-0146]
100 to 1000	CCCCC1CN(CC(=O)NCC(O)C(F)(F)F)C(=O)c2cc(-c3ccc(Cl)cc3)nn21 (centres unmarked) [Compound I-0216]
10 to 100	CCCCC1CN(CC2CCCO2)C(=O)c2cc(-c3ccc(Cl)cc3)nn21 (centres unmarked) [Compound I-0268]
100 to 1000	CCCCCC1CN(CC(=O)N2CCC[C@H]2C)C(=O)c2cc(-c3ccc(Cl)cc3)nn21 (some centres unmarked) [Compound I-0117]
≥ 1000	C[C@H]1CN(Cc2ccc(C#N)cc2)C(=O)c2cc(-c3ccc(Cl)cc3)nn21 [Compound I-0165]
10 to 100	C[C@H]1CN(CC(=O)N(C)CCC#N)C(=O)c2cc(-c3ccc(C#N)cc3NC(=O)C(C)(C)C)nn21 [Compound I-0359]
100 to 1000	CCCCC1CN(CC(=O)N2CCC[C@H](C)C2)C(=O)c2cc(-c3ccc(Cl)cc3)nn21 (some centres unmarked) [Compound I-0242]
≥ 1000	CCOC(=O)CN1CC(COCc2ccccc2)n2nc(-c3ccc(Cl)cc3)cc2C1=O (centres unmarked) [Compound I-0026]
100 to 1000	CCCCCC1CN(CC(=O)N2CCC[C@@H](C)C2)C(=O)c2cc(-c3ccc(Cl)cc3)nn21 (some centres unmarked) [Compound I-0071]
10 to 100	CCCCCC1CN(CC(=O)N2CCC(CC(=O)O)CC2)C(=O)c2cc(-c3ccc(Cl)cc3)nn21 (centres unmarked) [Compound I-0048]
< 10	CCCCCC1CN(Cc2cccc(C(=O)O)n2)C(=O)c2cc(-c3ccc(Cl)cc3)nn21 (centres unmarked) [Compound I-0184]
100 to 1000	CCCC1CN(Cc2ccc(C#N)cc2)C(=O)c2cc(-c3ccc(Cl)cc3)nn21 (centres unmarked) [Compound I-0181]
100 to 1000	CCCCCC1CN(CC(=O)N2CCC(Cc3ccccc3)C2)C(=O)c2cc(-c3ccc(Cl)cc3)nn21 (centres unmarked) [Compound I-0032]
< 10	COCC(=O)Nc1cc(C#N)ccc1-c1cc2n(n1)[C@@H](C)CN(CC(=O)N(C)CCC#N)C2=O [Compound I-0351]
10 to 100	C[C@H]1CN(Cc2ccc(C#N)cc2)C(=O)c2cc(-c3ccc(Cl)cc3NC(=O)C3CC3)nn21 [Compound I-0322]
10 to 100	CCCCCC1CN(CC(=O)N(C)CC(=O)O)C(=O)c2cc(-c3ccc(Cl)cc3)nn21 (centres unmarked) [Compound I-0043]
10 to 100	CCCC(=O)Nc1cc(Cl)ccc1-c1cc2n(n1)[C@@H](C)CN(Cc1ccc(C#N)cc1)C2=O [Compound I-0321]
≥ 1000	CCOC(=O)CN1C(=O)c2cc(-c3ccc(Cl)cc3)nn2C2COCC21 (centres unmarked) [Compound I-0027]
100 to 1000	C[C@H]1CN(Cc2ccc(C#N)cc2)C(=O)c2cc(-c3ccc(Cl)cc3NS(C)(=O)=O)nn21 [Compound I-0323]
100 to 1000	CCCCC1CN(Cc2ccc(C#N)cc2)C(=O)c2cc(-c3ccc(Cl)cc3N)nn21 (centres unmarked) [Compound I-0281]
10 to 100	CCCCC1CN(CNC(C)=O)C(=O)c2cc(-c3ccc(Cl)cc3)nn21 (centres unmarked) [Compound I-0151]
100 to 1000	CCCCCC1CN(CC(=O)NCc2ccc(C(=O)O)cc2)C(=O)c2cc(-c3ccc(Cl)cc3)nn21 (centres unmarked) [Compound I-0045]
100 to 1000	CCCCC1CN(CC(=O)NCc2cccc(O)c2)C(=O)c2cc(-c3ccc(Cl)cc3)nn21 (centres unmarked) [Compound I-0226]
10 to 100	CC(=O)Nc1cc(C#N)ccc1-c1cc2n(n1)[C@@H](C)CN(C1CCN(CC(F)(F)F)C1=O)C2=O (some centres unmarked) [Compound I-0367]
100 to 1000	CCCCC1CN(CC(=O)NC(C#N)Cc2ccccc2)C(=O)c2cc(-c3ccc(Cl)cc3)nn21 (centres unmarked) [Compound I-0331]
≥ 1000	O=C(O)c1cccc(CN2CC(CO)n3nc(-c4ccc(Cl)cc4)cc3C2=O)c1 (centres unmarked) [Compound I-0174]
10 to 100	CCCCCC1CN(CC(=O)N2CCCC(CC(=O)O)C2)C(=O)c2cc(-c3ccc(Cl)cc3)nn21 (centres unmarked) [Compound I-0053]

IC50 [nM]	Compound
100 to 1000	CCCCC1CN(CC(=O)NCCO)C(=O)c2cc(-c3ccc(Cl)cc3)nn21 (centres unmarked) [Compound I-0218]
100 to 1000	CCCCCC1CN(CC(=O)NCCCC)C(=O)c2cc(-c3ccc(Cl)cc3)nn21 (centres unmarked) [Compound I-0088]
≥ 1000	CCCOCC1CN(CC(=O)O)C(=O)c2cc(-c3ccc(Cl)cc3)nn21 (centres unmarked) [Compound I-0253]
≥ 1000	CCCCCC1CN(Cc2ccccc2CS(=O)(=O)c2ccccc2)C(=O)c2cc(-c3ccc(Cl)cc3)nn21 (centres unmarked) [Compound I-0144]
10 to 100	CC(=O)NC[C@@H](O)CN1C[C@H](C)n2nc(-c3ccc(OC(F)(F)F)cc3NC(C)=O)cc2C1=O [Compound I-0340]
10 to 100	CCCCCC1CN(CC(=O)N2CCC[C@@H]2C)C(=O)c2cc(-c3ccc(Cl)cc3)nn21 (some centres unmarked) [Compound I-0075]
< 10	CCCOCC1CN(CC(=O)N2CCC(C(=O)O)CC2)C(=O)c2cc(-c3ccc(Cl)cc3)nn21 (centres unmarked) [Compound I-0319]
10 to 100	CCCCCC1CN(CC(=O)N2CCC(C(=O)O)C2)C(=O)c2cc(-c3ccc(Cl)cc3)nn21 (centres unmarked) [Compound I-0066]
100 to 1000	CCCCCC1CN(CC(=O)N2CCCC2c2ccccc2)C(=O)c2cc(-c3ccc(Cl)cc3)nn21 (centres unmarked) [Compound I-0107]
100 to 1000	CCCCCC1CN(CC(=O)N2CCC(C)C2)C(=O)c2cc(-c3ccc(Cl)cc3)nn21 (centres unmarked) [Compound I-0074]
10 to 100	CCCCC1CN(CC2CN(C(C)C)C(=O)O2)C(=O)c2cc(-c3ccc(Cl)cc3)nn21 (centres unmarked) [Compound I-0275]
100 to 1000	CCCCC1CN(C2COC2)C(=O)c2cc(-c3ccc(Cl)cc3)nn21 (centres unmarked) [Compound I-0274]
100 to 1000	CCCCC1CN(CC(=O)N(C)CC(O)c2ccccc2)C(=O)c2cc(-c3ccc(Cl)cc3)nn21 (centres unmarked) [Compound I-0228]
100 to 1000	CCCCC1CN(CC(=O)NCC2(CO)COC2)C(=O)c2cc(-c3ccc(Cl)cc3)nn21 (centres unmarked) [Compound I-0237]
100 to 1000	CCCCC1CN(CC(=O)N2CCC(OCCO)CC2)C(=O)c2cc(-c3ccc(Cl)cc3)nn21 (centres unmarked) [Compound I-0243]
≥ 1000	CCCCCC1CN(c2cccc(CC(=O)O)c2)C(=O)c2cc(-c3ccc(Cl)cc3)nn21 (centres unmarked) [Compound I-0202]
≥ 1000	C[C@H]1CN(Cc2cccc(C(=O)N3CCC(O)CC3)c2)C(=O)c2cc(-c3ccc(Cl)cc3)nn21 [Compound I-0167]
≥ 1000	CCOC(=O)CN1C[C@H](c2ccccc2)n2nc(-c3ccc(Cl)cc3)cc2C1=O [Compound I-0021]
< 10	CC(=O)Nc1cc(OC(F)(F)F)ccc1-c1cc2n(n1)[C@@H](C)CN(Cc1ccc(C#N)cc1)C2=O [Compound I-0334]
≥ 1000	C[C@H]1CN(CC(=O)NCCC(=O)O)C(=O)c2cc(-c3ccc(Cl)cc3)nn21 [Compound I-0156]
≥ 1000	CCCCCC1CN(CC(=O)N2CCCCC2Cc2ccccc2)C(=O)c2cc(-c3ccc(Cl)cc3)nn21 (centres unmarked) [Compound I-0030]
10 to 100	CCCCC1CN(C2CCN(CC(F)(F)F)C2=O)C(=O)c2cc(-c3ccc(Cl)cc3)nn21 (centres unmarked) [Compound I-0264]
≥ 1000	C[C@H]1CN(Cc2ccc(C(N)=O)cc2)C(=O)c2cc(-c3ccc(Cl)cc3)nn21 [Compound I-0169]
10 to 100	COC(=O)Nc1cc(Cl)ccc1-c1cc2n(n1)[C@@H](C)CN(CC(=O)N(C)CC#N)C2=O [Compound I-0363]
≥ 1000	C[C@H]1CN(Cc2ccc(C#N)cc2)C(=O)c2cc(-c3ccc(Cl)cc3F)nn21 [Compound I-0327]
10 to 100	CCCCC1CN(CC(=O)NCCC#N)C(=O)c2cc(-c3ccc(Cl)cc3)nn21 (centres unmarked) [Compound I-0230]
10 to 100	CCCCCC1CN(CC(=O)N2CCC(c3ccccc3)CC2)C(=O)c2cc(-c3ccc(Cl)cc3)nn21 (centres unmarked) [Compound I-0036]

Compound	IC50 [nM]
CCCCC1CN(CC(=O)N2[C@@H]3CC[C@H]2C[C@@H](O)C3)C(=O)c2cc(-c3ccc(Cl)cc3)nn21 (some centres unmarked) [Compound I-0238]	100 to 1000
